Source: US10287305B2, “Substituted piperidine compound and use thereof” (Takeda Pharmaceutical Company Limited, priority 2016, dated 2019)

Target: human orexin type 2 receptor (hOX2R) (Homo sapiens (Human), UniProt O43614)
Assay: Measurement of orexin type 2 receptor agonist activity (Experimental Example 2-1, FLIPR TETRA, intracellular Ca2+)
Type: cell-based
Conditions: CHO dhfr- cells expressing hOX2R, FLIPR TETRA, Fluo-4AM; for Emax: read-out: Emax (%)

human orexin type 2 receptor (hOX2R), sequence (O43614 whole entry): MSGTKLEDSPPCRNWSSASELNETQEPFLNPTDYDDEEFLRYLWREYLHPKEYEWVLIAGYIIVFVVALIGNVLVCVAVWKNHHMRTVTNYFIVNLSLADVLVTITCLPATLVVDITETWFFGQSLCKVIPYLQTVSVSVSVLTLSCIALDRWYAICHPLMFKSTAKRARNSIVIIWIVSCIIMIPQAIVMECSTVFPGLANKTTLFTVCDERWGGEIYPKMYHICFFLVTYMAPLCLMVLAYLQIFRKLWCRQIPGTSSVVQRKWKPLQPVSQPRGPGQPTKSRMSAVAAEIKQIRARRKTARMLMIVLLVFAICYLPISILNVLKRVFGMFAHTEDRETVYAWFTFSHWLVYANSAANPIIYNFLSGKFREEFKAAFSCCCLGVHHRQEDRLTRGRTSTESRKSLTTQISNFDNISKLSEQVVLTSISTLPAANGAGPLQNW

EC50 [nM]	Emax [%]	Structure (SMILES)
3800	80	COC(=O)N1CCC[C@H](NS(C)(=O)=O)[C@@H]1COC1CCN(c2ccccc2C(F)(F)F)CC1 (relative stereo) [Example 165, methyl cis-3-((methylsulfonyl)amino)-2-(((1-(2-(trifluoromethyl)phenyl)piperidin-4-yl)oxy)methyl)piperidine-1-carboxylate]
2400	83	COC(=O)N1CCC[C@H](NS(C)(=O)=O)[C@@H]1COC1CCN(c2ccccc2Cl)CC1 (relative stereo) [Example 167, methyl cis-2-(((1-(2-chlorophenyl)piperidin-4-yl)oxy)methyl)-3-((methylsulfonyl)amino)piperidine-1-carboxylate]
45	98	CS(=O)(=O)N[C@H]1CCCN(C(=O)C2(O)CC2)[C@H]1CO[C@H]1CC[C@@H](c2ccccc2)CC1 (relative stereo) [Example 176, N-(cis-1-((1-hydroxycyclopropyl)carbonyl)-2-(((cis-4-phenylcyclohexyl)oxy)methyl)piperidin-3-yl)methanesulfonamide]
190	96	CC(=O)C(=O)N1CCC[C@H](NS(C)(=O)=O)[C@@H]1CO[C@H]1CC[C@@H](c2ccccc2)CC1 (relative stereo) [Example 177, N-(cis-2-(((cis-4-phenylcyclohexyl)oxy)methyl)-1-pyruvoylpiperidin-3-yl)methanesulfonamide]
0.31	100	CS(=O)(=O)N[C@H]1CCCN(C(=O)NCC#N)[C@H]1CO[C@H]1CC[C@@H](c2ccccc2)CC1 (relative stereo) [Example 179, cis-N-(cyanomethyl)-3-((methylsulfonyl)amino)-2-(((cis-4-phenylcyclohexyl)oxy)methyl)piperidine-1-carboxamide]
3300	86	COC(=O)N1CCC[C@H](NS(C)(=O)=O)[C@@H]1COC1CCN(c2c(Cl)cccc2Cl)CC1 (relative stereo) [Example 186, methyl cis-2-(((1-(2,6-dichlorophenyl)piperidin-4-yl)oxy)methyl)-3-((methylsulfonyl)amino)piperidine-1-carboxylate]
78	88	CC(C)(O)C(=O)N1CCC[C@H](NS(C)(=O)=O)[C@@H]1CO[C@H]1CC[C@@H](c2ccccc2)CC1 (relative stereo) [Example 189, N-(cis-1-(2-hydroxy-2-methylpropanoyl)-2-(((cis-4-phenylcyclohexyl)oxy)methyl)piperidin-3-yl)methanesulfonamide]
150	108	CCNC(=O)N1CCC[C@H](NS(C)(=O)=O)[C@@H]1CO[C@H]1C[C@@H](c2ccc(C)cc2)C1 (relative stereo) [Example 192, cis-N-ethyl-2-(((cis-3-(4-methylphenyl)cyclobutyl)oxy)methyl)-3-((methylsulfonyl)amino)piperidine-1-carboxamide]
300	88	CS(=O)(=O)N[C@H]1CCCN(C(=O)C2CC2)[C@H]1CO[C@H]1C[C@@H](c2ccccc2)C1 (relative stereo) [Example 193, N-(cis-1-(cyclopropylcarbonyl)-2-(((cis-3-phenylcyclobutyl)oxy)methyl)piperidin-3-yl)methanesulfonamide]
–	81	COC(=O)N1CCC[C@H](NS(C)(=O)=O)[C@@H]1CO[C@H]1C[C@@H](c2ccccc2)C1 (relative stereo) [Example 194, methyl cis-3-((methylsulfonyl)amino)-2-(((cis-3-phenylcyclobutyl)oxy)methyl)piperidine-1-carboxylate]
250	102	CCNC(=O)N1CCC[C@H](NS(C)(=O)=O)[C@@H]1COC1CCN(c2ccccc2F)CC1 (relative stereo) [Example 195, cis-N-ethyl-2-(((1-(2-fluorophenyl)piperidin-4-yl)oxy)methyl)-3-((methylsulfonyl)amino)piperidine-1-carboxamide]
30	104	CS(=O)(=O)N[C@H]1CCCN(C(=O)C2CC2)[C@H]1COC1CCN(c2ncccn2)CC1 (relative stereo) [Example 196, N-(cis-1-(cyclopropylcarbonyl)-2-(((1-(pyrimidin-2-yl)piperidin-4-yl)oxy)methyl)piperidin-3-yl)methanesulfonamide]
–	90	CS(=O)(=O)N[C@H]1CCCN(C(=O)C2CC2)[C@H]1CO[C@H]1CC[C@@H](C)CC1 (relative stereo) [Example 197, N-(cis-1-(cyclopropylcarbonyl)-2-(((cis-4-methylcyclohexyl)oxy)methyl)piperidin-3-yl)methanesulfonamide]
56	92	CC(=O)N1CCC[C@H](NS(C)(=O)=O)[C@@H]1CO[C@H]1CC[C@@H](c2cc(F)ccc2F)CC1 (relative stereo) [Example 198, N-(cis-1-acetyl-2-(((cis-4-(2,5-difluorophenyl)cyclohexyl)oxy)methyl)piperidin-3-yl)methanesulfonamide]
2000	92	CS(=O)(=O)N[C@H]1CCCN(C(=O)C2CC2)[C@H]1COC1CCN(c2ccccc2Cl)CC1 (relative stereo) [Example 201, N-(cis-2-(((1-(2-chlorophenyl)piperidin-4-yl)oxy)methyl)-1-(cyclopropylcarbonyl)piperidin-3-yl)methanesulfonamide]
19	97	CS(=O)(=O)N[C@H]1CCCN(C(=O)C2CC2)[C@H]1COC1CCN(c2ncc(F)cn2)CC1 (relative stereo) [Example 202, N-(cis-1-(cyclopropylcarbonyl)-2-(((1-(5-fluoropyrimidin-2-yl)piperidin-4-yl)oxy)methyl)piperidin-3-yl)methanesulfonamide]
710	102	CC(=O)N1CCC[C@H](NS(C)(=O)=O)[C@@H]1CO[C@H]1CC[C@@H](c2cccc(C(F)(F)F)c2)CC1 (relative stereo) [Example 204, N-(cis-1-acetyl-2-(((cis-4-(3-(trifluoromethyl)phenyl)cyclohexyl)oxy)methyl)piperidin-3-yl)methanesulfonamide]
26	110	CCNC(=O)N1CCC[C@H](NS(C)(=O)=O)[C@@H]1CO[C@H]1CC[C@@H](c2cccc(C(F)(F)F)c2)CC1 (relative stereo) [Example 207, cis-N-ethyl-3-((methylsulfonyl)amino)-2-(((cis-4-(3-(trifluoromethyl)phenyl)cyclohexyl)oxy)methyl)piperidine-1-carboxamide]
940	93	CS(=O)(=O)N[C@H]1CCCN(C(=O)C2CCCCC2)[C@H]1COC1CCN(c2ncccn2)CC1 (relative stereo) [Example 208, N-(cis-1-(cyclohexylcarbonyl)-2-(((1-(pyrimidin-2-yl)piperidin-4-yl)oxy)methyl)piperidin-3-yl)methanesulfonamide]
1900	89	CS(=O)(=O)N[C@H]1CCCN(C(=O)C2CC2)[C@H]1COC1CCN(c2cccc(F)c2Cl)CC1 (relative stereo) [Example 209, N-(cis-2-(((1-(2-chloro-3-fluorophenyl)piperidin-4-yl)oxy)methyl)-1-(cyclopropylcarbonyl)piperidin-3-yl)methanesulfonamide]
3600	86	CC1(C)CCC(C(=O)N2CCC[C@H](NS(C)(=O)=O)[C@@H]2COC2CCN(c3ncccn3)CC2)CC1 (relative stereo) [Example 210, N-(cis-1-((4,4-dimethylcyclohexyl)carbonyl)-2-(((1-(pyrimidin-2-yl)piperidin-4-yl)oxy)methyl)piperidin-3-yl)methanesulfonamide]
1100	94	CS(=O)(=O)N[C@H]1CCCN(C(=O)C2CC2)[C@H]1COC1CCN(c2ncccn2)CC1(F)F (relative stereo) [Example 211, N-(cis-1-(cyclopropylcarbonyl)-2-(((3,3-difluoro-1-(pyrimidin-2-yl)piperidin-4-yl)oxy)methyl)piperidin-3-yl)methanesulfonamide]
2200	89	CS(=O)(=O)N[C@H]1CCCN(C(=O)C2CC2)[C@H]1COC1CCN(c2cc(F)ccc2Cl)CC1 (relative stereo) [Example 212, N-(cis-2-(((1-(2-chloro-5-fluorophenyl)piperidin-4-yl)oxy)methyl)-1-(cyclopropylcarbonyl)piperidin-3-yl)methanesulfonamide]
210	105	CC(=O)N1CCC[C@H](NS(C)(=O)=O)[C@@H]1COC1CCC(F)(c2cccc(F)c2)CC1 (relative stereo) [Example 216, N-(cis-1-acetyl-2-(((4-fluoro-4-(3-fluorophenyl)cyclohexyl)oxy)methyl)piperidin-3-yl)methanesulfonamide]
3000	91	CCC(=O)N1CCC[C@H](NS(C)(=O)=O)[C@@H]1COC1CCN(c2ccccc2F)CC1 (relative stereo) [Example 219, N-(cis-2-(((1-(2-fluorophenyl)piperidin-4-yl)oxy)methyl)-1-propionylpiperidin-3-yl)methanesulfonamide]
1100	110	CS(=O)(=O)N[C@H]1CCCN(C(=O)C2CCC2)[C@H]1COC1CCN(c2ccccc2F)CC1 (relative stereo) [Example 223, N-(cis-1-(cyclobutylcarbonyl)-2-(((1-(2-fluorophenyl)piperidin-4-yl)oxy)methyl)piperidin-3-yl)methanesulfonamide]
1700	90	CC(C)C(=O)N1CCC[C@H](NS(C)(=O)=O)[C@@H]1COC1CCN(c2ccccc2F)CC1 (relative stereo) [Example 224, N-(cis-2-(((1-(2-fluorophenyl)piperidin-4-yl)oxy)methyl)-1-isobutyrylpiperidin-3-yl)methanesulfonamide]
